Source: patent US20230009608A1, “GRK2 INHIBITORS AND USES THEREOF” (Cygnal Therapeutics, Inc., priority 2020, published 2023)

Target: T1, GRK2 (Homo sapiens, UniProt P25098)
T1 construct: purchased SignalChem A14-10G
T1 sequence (P25098 1-689): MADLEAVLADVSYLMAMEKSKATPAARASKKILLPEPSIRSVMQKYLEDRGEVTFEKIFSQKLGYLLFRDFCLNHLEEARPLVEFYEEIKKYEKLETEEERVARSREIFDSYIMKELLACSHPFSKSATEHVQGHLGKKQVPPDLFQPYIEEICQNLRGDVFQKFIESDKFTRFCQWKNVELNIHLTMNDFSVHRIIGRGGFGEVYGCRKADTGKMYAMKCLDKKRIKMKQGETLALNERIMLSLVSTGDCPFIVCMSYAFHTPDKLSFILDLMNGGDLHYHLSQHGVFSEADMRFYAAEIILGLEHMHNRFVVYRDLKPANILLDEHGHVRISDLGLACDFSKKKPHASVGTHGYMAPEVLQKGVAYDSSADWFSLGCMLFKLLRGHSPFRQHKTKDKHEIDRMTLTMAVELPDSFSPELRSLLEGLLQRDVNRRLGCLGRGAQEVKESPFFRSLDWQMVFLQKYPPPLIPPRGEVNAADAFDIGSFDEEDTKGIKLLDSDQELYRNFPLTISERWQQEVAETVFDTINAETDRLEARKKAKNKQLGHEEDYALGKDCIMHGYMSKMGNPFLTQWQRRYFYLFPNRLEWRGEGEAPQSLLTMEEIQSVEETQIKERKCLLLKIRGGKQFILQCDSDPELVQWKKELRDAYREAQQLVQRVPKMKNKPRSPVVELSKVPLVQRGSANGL
Assay: ADPGlo GRK2 Inhibition Assay (Example 8)
Assay type: biochemical
Conditions: 7.5 nM GRK2, 10 μM ATP, ADP-Glo; read-out: GRK2 IC50 (nM) (Example 8)
Experimental: HTS was performed using 1 μM compound.
Compounds were dissolved in 100% DMSO, serially diluted tree-fold from 100 μM concentration to 46 nM and transferred (50 nL) into assay ready plate.
Materials: GRK2 was purchased from SignalChem (Cat #A14-10G, Lot #X^645-3). Substrate GRKtide was from SignalChem (Cat #G46-58, Lot #R339-6). ADP-Glo Kinase Assay from Promega (Cat #V9102). Assay buffer consisted of 25 mMv HEPES (pH7.5), 10 mMv MgCl2, 0.01% Tween-20, 1 mM DDT. 384-well white plates were from Greiner […] (Item #784075).
HTS protocol: Take 384 well plate with 50 nL of compound in columns 3-22/DMSO solution 1-2,23-24. Add 2.5 μL assay buffer to columns 23 and 24 using Thermo Scientific Multidrop Combi Dispenser. Add 2.5 μL of 2× enzyme solution (15 nM in 1× assay buffer) using Thermo Scientific Multidrop Combi Reagent Dispenser to all columns except of 23 and 24. Incubate for 15 minutes. Fill plate with 2.5 μL of 2× substrate mix (20 μM ATP and 0.6 mg/nt GRKtide in Ix assay buffer) using Thermo Scientific Multidrop Combi Reagent Dispenser. Spin 15 seconds at 1000 rpm and incubate for 180 min at room temperature. Add 5 μL ADP-Glo reagent to all the wells. Spin 15 seconds at 1000 rpm and incubate for 40 min at room temperature. Add 10 μL Detection solution to all the wells. Incubate for 30 min at room temperature. Read plate in Luminescent modeon BMG PheraStar FSX (gain=3600).
Data Analysis: Data were analyzed in GraphPad Prism 8.0.2. Each HTS plate contains compounds in columns 3-22, controls (enzyme, no compound) in columns 1 and 2, and blanks (no enzyme) in columns 23 and 24. HTS percent inhibition was calculated for each compound from the signal in luminescence units and the mean of the plate controls and the mean of the plate blanks using the following equation: % Inhibition=100*(1−((signal-blank mean)/(control mean-blank mean))). At the final stage of data processing, we obtain dose-response curves, tables and SDF-files with the results of screening for each substance.

Row | SMILES | IC50 [nM]
1 | COc1cccc(C(C)NC(=O)c2cccc(NCc3nnc(-c4ccncn4)n3C)c2)c1 (stereo not shown) [compound 48] | 4.4
2 | Cn1c(CNc2cccc(C(=O)NCc3cccc4cccnc34)c2)nnc1-c1ccncn1 [compound 24] | 61
3 | Cn1c(CNc2cccc(C(=O)NCc3cccc(C#N)c3)c2)nnc1-c1ccncn1 [compound 43] | 2.7
4 | Cc1cc2c(cc1CNC(=O)c1cccc(NCc3nnc(-c4ccncn4)n3C)c1)OCCO2 [compound 36] | 0.5
5 | Cn1ccnc1C(NC(=O)c1cccc(NCc2nnc(-c3ccncc3)[nH]2)c1)C1CC1 (stereo not shown) [compound 50] | 5.5
6 | Cn1c(CNc2cccc(C(=O)NCc3ccc(C#N)cc3)c2)nnc1-c1ccncn1 [compound 54] | 6.3
7 | CCOc1ccc(C(CO)NC(=O)c2cccc(NCc3nnc(-c4ccncn4)n3C)c2)cn1 (stereo not shown) [compound 41] | 1.8
8 | Cn1c(CNc2cccc(C(=O)NCc3ccnc(OCC(F)(F)F)c3)c2)nnc1-c1ccncn1 [compound 19] | 17
9 | Cn1c(CNc2cccc(C(=O)NCc3ccc(-n4ccnn4)cc3)c2)nnc1-c1ccncn1 [compound 58] | 9.5
10 | Cc1cccc2ncc(CNC(=O)c3cccc(NCc4nnc(-c5ccncn5)n4C)c3)n12 [compound 37] | 0.79
11 | CC1Cc2cc(CNC(=O)c3cccc(NCc4nnc(-c5ccncn5)n4C)c3)ccc2O1 (stereo not shown) [compound 32] | 22

Other lines, results leading:

Row | IC50 [nM] | SMILES
12 | 9.6 | Cn1c(CNc2cccc(C(=O)NC3CCOc4cccnc43)c2)nnc1-c1ccncn1 (stereo not shown) [compound 60]
13 | 9.1 | Cn1c(CNc2cccc(C(=O)NCc3ccncc3Cl)c2)nnc1-c1ccncn1 [compound 13]
14 | 9.8 | Cc1nc(CNC(=O)c2cccc(NCc3nnc(-c4ccncn4)n3C)c2)cs1 [compound 61]
15 | 37 | CN1CCC(NC(=O)c2cccc(NCc3nnc(-c4ccncn4)n3C)c2)c2ccccc21 (stereo not shown) [compound 16]
16 | 4.3 | Cn1c(CNc2cccc(C(=O)NCc3cnccc3Cl)c2)nnc1-c1ccncn1 [compound 47]
17 | 1.7 | Cn1c(CNc2cccc(C(=O)NCc3ccc4nccn4c3)c2)nnc1-c1ccncn1 [compound 40]
18 | 420 | C[C@H](NC(=O)c1cccc(NCc2nnc(-c3ccncn3)n2C)c1)c1cccnc1 [compound 22]
19 | 5.7 | CC(NC(=O)c1cccc(NCc2nnc(-c3ccncn3)n2C)c1)c1c[nH]cn1 (stereo not shown) [compound 52]

Same assay, conditions: ADPGlo GRK2 enzyme assay; read-out: A: Enzymatic GRK2: IC50 (nM) (Example 8)

Row | SMILES | IC50 [nM]
20 | COc1ccc(CNC(=O)c2cccc(NCc3nnc(-c4ccncn4)n3C)c2)cc1 | 913
21 | COc1cccc2c1CCC2(CO)NC(=O)c1cccc(NCc2cnc(-c3ccncn3)n2C)c1 (stereo not shown) | 134
22 | Cn1c(CNc2cccc(C(=O)NCc3c4c(n[nH]c3=O)CCCC4)c2)nnc1-c1ccncn1 | 531
23 | Cn1c(CNc2cccc(C(=O)NCc3cc4c(nc3O)CCCC4)c2)nnc1-c1ccncn1 | 192
24 | CCN1CCN(Cc2ccccc2CNC(=O)c2cccc(NCc3nnc(-c4ccncn4)n3C)c2)CC1 | 267
25 | CN1CCN(S(=O)(=O)c2ccccc2CNC(=O)c2cccc(NCc3nnc(-c4ccncn4)n3C)c2)CC1 | 344
26 | CN1CCN(c2ccccc2CNC(=O)c2cccc(NCc3nnc(-c4ccncn4)n3C)c2)CC1 | 184
27 | CNS(=O)(=O)Cc1ccccc1CNC(=O)c1cccc(NCc2nnc(-c3ccncn3)n2C)c1 | 68.9
28 | Cn1c(CNc2cccc(C(=O)NC(CO)c3c(F)cccc3F)c2)nnc1-c1ccncn1 (stereo not shown) | 146
29 | Cc1nnc(O)c(C(C)NC(=O)c2cccc(NCc3nnc(-c4ccncn4)n3C)c2)c1C (stereo not shown) | 132
30 | Cn1c(CNc2cccc(C(=O)NCc3ccccc3-n3cccn3)c2)nnc1-c1ccncn1 | 184
31 | CC(C)NS(=O)(=O)Cc1ccccc1CNC(=O)c1cccc(NCc2nnc(-c3ccncn3)n2C)c1 | 69.8
32 | Cc1c[nH]c(=O)c(CNC(=O)c2cccc(NCc3nnc(-c4ccncn4)n3C)c2)c1 | > 1000
33 | Cc1nc2c(c(C)c1CNC(=O)c1cccc(NCc3nnc(-c4ccncn4)n3C)c1)c(=O)[nH]n2C | 181
34 | Cn1c(CNc2cccc(C(=O)NCc3ccccc3OCCN3CCOCC3)c2)nnc1-c1ccncn1 | 145
35 | Cc1cnc(CCNC(=O)c2cccc(NCc3nnc(-c4ccncn4)n3C)c2)c(C)c1 | 432
36 | Cc1ncc(CNC(=O)c2cccc(NCc3nnc(-c4ccncn4)n3C)c2)c(O)n1 | 382
37 | COc1ccc([C@H](C)NC(=O)c2cccc(NCc3nnc(-c4ccncn4)n3C)c2)cc1 | 593
38 | COc1ccccc1[C@H](NC(=O)c1cccc(NCc2nnc(-c3ccncn3)n2C)c1)c1noc(C)n1 | 741
39 | COc1ccc([C@@H](C)NC(=O)c2cccc(NCc3nnc(-c4ccncn4)n3C)c2)c(OC)c1 | 8.56
40 | CN1CCN(Cc2ccccc2CNC(=O)c2cccc(NCc3nnc(-c4ccncn4)n3C)c2)CC1 | 159
41 | COc1cccc([C@@H](C)NC(=O)c2cccc(NCc3nnc(-c4ccncc4)[nH]3)c2)c1 | 81.6
42 | Cn1c(CNc2cccc(C(=O)NCc3ccc(CO)c(F)c3)c2)nnc1-c1ccncn1 | 103

Further lines, results first:

Row | IC50 [nM] | SMILES
43 | 133 | Cn1c(CNc2cccc(C(=O)NC3CCn4nccc4C3)c2)nnc1-c1ccncn1 (stereo not shown)
44 | 392 | Cn1c(CNc2cccc(C(=O)NC3CCCc4[nH]c(=O)ccc43)c2)nnc1-c1ccncn1 (stereo not shown)
45 | 289 | CN1CCN(c2ncccc2CNC(=O)c2cccc(NCc3nnc(-c4ccncn4)n3C)c2)CC1
46 | 208 | Cn1c(CNc2cccc(C(=O)NCC3Cc4ccccc4O3)c2)nnc1-c1ccncn1 (stereo not shown)
47 | 290 | CC(Cc1ccccn1)NC(=O)c1cccc(NCc2nnc(-c3ccncn3)n2C)c1 (stereo not shown)
48 | 171 | Cn1c(CNc2cccc(C(=O)NC3CCCn4nccc43)c2)nnc1-c1ccncn1 (stereo not shown)
49 | > 1000 | Cn1c(CNc2cccc(C(=O)NCc3cc4n(n3)CCC4)c2)nnc1-c1ccncn1
50 | 871 | Cn1c(CNc2cccc(C(=O)NCc3ccncc3OCC3CCOC3)c2)nnc1-c1ccncn1 (stereo not shown)
51 | 253 | CN1CCc2ccccc2C(NC(=O)c2cccc(NCc3nnc(-c4ccncn4)n3C)c2)C1=O (stereo not shown)
52 | 120 | CN(C)c1cccnc1CNC(=O)c1cccc(NCc2nnc(-c3ccncn3)n2C)c1
53 | 950 | C[C@H](NC(=O)c1cccc(NCc2nnc(-c3ccncn3)n2C)c1)c1ccc(Cl)cn1
54 | 135 | Cn1c(CNc2cccc(C(=O)NCc3cnn(C(C)(C)C)c3)c2)nnc1-c1ccncn1
55 | 59.1 | COC1COc2ccccc2C1NC(=O)c1cccc(NCc2nnc(-c3ccncn3)n2C)c1 (stereo not shown)
56 | 152 | CC(C)C(NC(=O)c1cccc(NCc2nnc(-c3ccncn3)n2C)c1)c1nccn1C (stereo not shown)

Same assay, conditions: Enzyme Assay A, ADPGlo (Example 8); read-out: A: Enzymatic GRK2: IC50 (nM) (Example 8)

Row | SMILES | IC50 [nM]
57 | COc1cccc(C2(NC(=O)c3cccc(NCc4nnc(-c5ccncn5)n4C)c3)CC2)c1F | 23
58 | O=C(NCc1ccccn1)c1cccc(NCc2nnc(-c3ccncc3)[nH]2)c1 | 36
59 | Cn1c(CNc2cccc(C(=O)NCc3ccc(F)cc3F)c2)nnc1-c1ccncn1 | 15
60 | COc1cccc([C@H](C)NC(=O)c2cccc(NCc3nnc(-c4ccncc4)n3C)c2)c1 | 117
61 | Cn1c(CNc2cccc(C(=O)NC(CO)c3ccccc3F)c2)nnc1-c1ccncn1 (stereo not shown) | 60
62 | Cn1c(CNc2cccc(C(=O)NC(CCO)c3ccc(F)cc3)c2)nnc1-c1ccncn1 (stereo not shown) | 52
63 | CC(NC(=O)c1cccc(NCc2nnc(-c3ccncn3)n2C)c1)c1nnc2ccccn12 (stereo not shown) | 260

Second part, the compound after the results:

Row | IC50 [nM] | SMILES
64 | 240 | Cn1c(CNc2cccc(C(=O)NCc3ncc(Cl)cn3)c2)nnc1-c1ccncn1
65 | 110 | Cn1c(CNc2cccc(C(=O)NCc3c[nH]cn3)c2)nnc1-c1ccncn1
66 | 16 | Cc1ncsc1CNC(=O)c1cccc(NCc2nnc(-c3ccncn3)n2C)c1
67 | 150 | Cc1cnc(CNC(=O)c2cccc(NCc3nnc(-c4ccncn4)n3C)c2)cn1
